Columns and labels:
[1] = system: S. aureus DSM 20231; experiment: fitness (endpoint OD595 vs no drug) (fraction); higher = more growth
Method in brief: (§1)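 Fitness compares growth at the stationary-phase transition with the robust mean of no-drug control wells, as a ratio of optical densities. The ratio is capped at 1. Wells of 384-well plates held 30 µl, or 55 µl for S. pneumoniae, inoculated at OD595 0.01. Readings at OD595 every 30 min for 14 h at 37 °C were corrected against the first reading.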

[2] = system: S. aureus Newman; experiment: as above
Method in brief: as §1

[3] = system: S. pneumoniae D39V; experiment: as above
Method in brief: as §1

[4] = system: B. subtilis 168; experiment: Bliss interaction score (quartile over a dose matrix) (fitness difference); higher = more antagonism (negative = synergy)
Method in brief: (§2)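 Each OD595 reading at entry into stationary phase was scaled to the robust mean of the untreated wells on its plate, with a ceiling of 1. These ratios define fitness, and single-drug fitness was inferred from combinations. The Bliss score compares observed fitness with the product-based expectation and is reported as quartiles across all replicate types, technical, biological and donor/recipient.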

[5] = system: S. aureus DSM 20231; experiment: as above
Method in brief: as §2

[6] = system: S. aureus Newman; experiment: as above
Method in brief: as §2

[7] = system: S. pneumoniae D39V; experiment: as above
Method in brief: as §2
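Wherever Bliss interaction score (quartile over a dose matrix) is given: first quartile when negative (synergy) and third quartile when positive (antagonism).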
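Wherever fitness (endpoint OD595 vs no drug) is given: OD595 on entry to stationary phase over no-drug wells; at most 1.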

CC1(C)S[C@@H]2[C@H](NC(=O)[C@H](N)c3ccc(O)cc3)C(=O)N2[C@H]1C(=O)O [Amoxicillin] + O=C(O[C@@H]1Cc2c(O)cc(O)cc2O[C@@H]1c1cc(O)c(O)c(O)c1)c1cc(O)c(O)c(O)c1 [EGCG]
fitness
Conditions | partner 12.5 µg/mL | partner 25 µg/mL | partner 50 µg/mL
[1], first compound 0.0625 µg/mL | 0.528 | 0.516 | 0.513
[1], first compound 0.125 µg/mL | 0.363 | 0.411 | 0.376
[1], first compound 0.25 µg/mL | 0.171 | 0.0387 | 0.108
[1], first compound 0.5 µg/mL | 0.0001 | 0.0081 | 0
[2], first compound 0.0625 µg/mL | 0.751 | 0.714 | 0.638
[2], first compound 0.125 µg/mL | 0.757 | 0.741 | 0.681
[2], first compound 0.25 µg/mL | 0.729 | 0.751 | –
[3], first compound 0.0008 µg/mL | 0.969 | 0.911 | 0.984
[3], first compound 0.0015 µg/mL | 0.92 | 0.922 | –
[3], first compound 0.003 µg/mL | 0.851 | 0.912 | 0.894

[3], first compound 0.006 µg/mL, one replicate
Conditions | fitness
partner 12.5 µg/mL | 0.412
partner 25 µg/mL | 0.545
partner 50 µg/mL | 0.601

Conditions | Bliss interaction score
[4] | 0.0413
[5] | 0.0606
[6] | 0.0679
[7] | -0.0544

CO/N=C(\C(=O)N[C@@H]1C(=O)N2C(C(=O)[O-])=C(C[N+]3(C)CCCC3)CS[C@H]12)c1csc(N)n1 [Cefepime] + CC1=C\[C@@H](O)CC(=O)Cc2nc(co2)C(=O)N2CCC=C2C(=O)O[C@H](C(C)C)[C@H](C)/C=C/C(=O)NC\C=C\1 [Virginiamycin M1]
Conditions | fitness
[1], first compound 0.125 µg/mL, partner 0.0625 µg/mL | 0.97
[1], first compound 0.125 µg/mL, partner 0.125 µg/mL | 0.932
[1], first compound 0.125 µg/mL, partner 0.25 µg/mL | 0.895
[1], first compound 0.25 µg/mL, partner 0.0625 µg/mL | 0.78
[1], first compound 0.25 µg/mL, partner 0.125 µg/mL | 0.902
[1], first compound 0.25 µg/mL, partner 0.25 µg/mL | 0.862
[1], first compound 0.5 µg/mL, partner 0.0625 µg/mL | 0.832
[1], first compound 0.5 µg/mL, partner 0.125 µg/mL | 0.969
[1], first compound 0.5 µg/mL, partner 0.25 µg/mL | 0.904
[2], first compound 0.125 µg/mL, partner 0.0625 µg/mL | 0.936
[2], first compound 0.125 µg/mL, partner 0.125 µg/mL | 0.932
[2], first compound 0.125 µg/mL, partner 0.25 µg/mL | 0.943
[2], first compound 0.25 µg/mL, partner 0.0625 µg/mL | 0.869
[2], first compound 0.25 µg/mL, partner 0.125 µg/mL | 0.848
[2], first compound 0.25 µg/mL, partner 0.25 µg/mL | 0.863
[2], first compound 0.5 µg/mL, partner 0.0625 µg/mL | 0.768
[2], first compound 0.5 µg/mL, partner 0.125 µg/mL | 0.792
[2], first compound 0.5 µg/mL, partner 0.25 µg/mL | 0.775
[3], first compound 0.007 µg/mL, partner 0.5 µg/mL | ≥ 1
[3], first compound 0.007 µg/mL, partner 1 µg/mL | ≥ 1
[3], first compound 0.007 µg/mL, partner 2 µg/mL | 0.992
[3], first compound 0.0078 µg/mL, partner 2 µg/mL | 0.958
[3], first compound 0.014 µg/mL, partner 0.5 µg/mL | ≥ 1
[3], first compound 0.014 µg/mL, partner 1 µg/mL | ≥ 1
[3], first compound 0.014 µg/mL, partner 2 µg/mL | ≥ 1
[3], first compound 0.0155 µg/mL, partner 2 µg/mL | 0.946
[3], first compound 0.028 µg/mL, partner 0.5 µg/mL | 0.979
[3], first compound 0.028 µg/mL, partner 1 µg/mL | 0.956
[3], first compound 0.028 µg/mL, partner 2 µg/mL | 0.969
[3], first compound 0.031 µg/mL, partner 2 µg/mL | 0.851

fitness, one replicate
Conditions | first compound 0.0078 µg/mL | first compound 0.0155 µg/mL | first compound 0.031 µg/mL | first compound 0.125 µg/mL | first compound 0.25 µg/mL | first compound 0.5 µg/mL
[1], partner 0.5 µg/mL | – | – | – | 0.887 | 0.892 | 0.866
[1], partner 1 µg/mL | – | – | – | 0.86 | 0.878 | 0.948
[2], partner 0.5 µg/mL | – | – | – | 0.865 | 0.819 | 0.732
[2], partner 1 µg/mL | – | – | – | 0.873 | 0.916 | 0.768
[2], partner 2 µg/mL | – | – | – | 0.888 | 0.798 | 0.706
[3], partner 0.15 µg/mL | ≥ 1 | ≥ 1 | ≥ 1 | – | – | –
[3], partner 0.3 µg/mL | ≥ 1 | ≥ 1 | 0.963 | – | – | –
[3], partner 0.5 µg/mL | ≥ 1 | 0.948 | 0.782 | – | – | –
[3], partner 1 µg/mL | 0.958 | 0.962 | 0.686 | – | – | –

Conditions | Bliss interaction score
[4] | 0.062
[5] | 0.0738
[6] | -0.0566
[7] | 0.0257

From the supplement of paper PMC10627819
